Where a SMILES comes first, the peptide text is derived from it. The star is where a group is joined. Cbz = O=C(OCc1ccccc1)*; CH2F = FC*
System: carbonyl adducts of proteins
Experiment: Protein carbonyl ELISA (oxidative retinal damage) after retinal detachment
Type: in vivo
Settings: day three after retinal detachment, wild type
Experimental: Recent studies reported that RIP kinases regulate downstream ROS production during programmed necrosis (Cho Y S et al. (2009) CELL 137:1112-1123; Zhang D W et al. (2009) SCIENCE 325:332-336; Kim et al. (2007) MOL CELL 26:675-687). ELISA for carbonyl adducts of proteins was used to examine oxidative retinal damage following retinal detachment. Specifically, the amounts of protein carbonyls were determined by using OxiSelect™ Protein Carbonyl ELISA Kit (Cell Biolabs, San Diego, Calif.).

## COC(=O)CC(NC(=O)C(C)NC(=O)C(NC(=O)OCc1ccccc1)C(C)C)C(=O)CF (stereo not drawn) [Z-VAD, Benzyloxycarbonyl-Val-Ala-Asp(OMe)-fluoromethylketone] (Cbz-Val-Ala-Asp(OMe)-CH2F; configuration not given here)
  carbonyl contents per mg protein: significant increase of carbonyl contents

Reference: patent US10639345B2, “Compositions for preserving photoreceptor cells, retinal pigment epithelial cells, or visual function” (Massachusetts Eye and Ear Infirmary, priority 2010, dated 2020)
